Source: patent US20020055470A1, “Circumvention of human tumor drug resistance” (CITY OF HOPE, priority 1987, published 2002)
Read-outs that look alike come from different tables or passages of the source.

What was measured:
Type in all cases: cell-based, human
[1] = system: A2780S; assay: Inhibition of cell growth (cells counted on Coulter Counter after six days)
Description: The experiment was conducted in triplicate in the manner described with respect to Table I.
A2780 cells were well-plated (35 mm disnes) and 24 hours later the cells were treated with cisplatin for one hour, washed out and then treated with 6 concentrations of from 1 μM to 100 μM increased in equal increments of a nucleoside analog in saline. Cells were then washed and incubated for six days. The cells were counted on a Coulter Counter and the experiment was done in triplicate.
(§1) Table VI includes EC50 data further exemplifying the invention. The data reported by Table VI was obtained by substantially the same procedure as that described with respect to Table III. In Table VI, “(C)” indicates continuous exposure, “(1 h)” and “(2 h)” indicate exposure for 1 hour and 2 hours; “HU” indicates hydroxyurea.

[2] = system: A2780DDP; assay: as above
Description: The experiment was conducted in triplicate in the manner described with respect to Table I. […]
as §1

[3] = system: HCT8DDP; assay: as above; conditions: HCT8-DDP; (C) continuous exposure; read-out: EC50
Description: as §1

[4] = system: HCT8S; assay: as above; conditions: (C) continuous exposure, read-out: EC50
Description: as §1

[5] = system: HCF7S; assay: Inhibition of cell growth, Table VI; conditions: (C) continuous exposure
[6] = system: HCF-7 DDP; assay: Inhibition of cell growth, Table VI; conditions: HCF-7 DDP; (C) continuous exposure
Description: as §1

[7] = system: K562-araC; assay: Inhibition of cell growth, Table VI; conditions: K562-araC; (C) continuous exposure
Description: as §1

[8] = system: K562S; assay: Inhibition of cell growth, Table VI; conditions: (C) continuous exposure
Description: as §1

[9] = system: K562-DDP; assay: Inhibition of cell growth, Table VI; conditions: K562-DDP; (C) continuous exposure
[10] = system: K562-VP16; assay: Inhibition of cell growth, Table VI; conditions: (C) continuous exposure
[11] = system: CEMS; assay: Cytotoxicity by continuous exposure in CEM cells
Description: (§2) There was an increase in DHFR enzyme activity (11.07-fold) due to an eight-fold increase in DHFR gene amplification and expression in CEM/MTX cells. There was also a corresponding 2-fold increase in thymidine kinase (TK) enzyme activity and TK gene expression in CEM/MTX cells. […] CEM cells untreated with nucleoside analog were the controls (100%). The experiment was performed three separate times in duplicate.

[12] = system: CEMDDP; assay: Cytotoxicity by continuous exposure in CEM cells
[13] = system: CEMMTX; assay: Cytotoxicity by continuous exposure in CEM cells
Description: CEM cells were made 15.8-fold resistant to methotrexate (MTX) by weekly (2 hr) pulses and cloned in soft agar. The optimal growth requirements for the CEMS/S and CEM/MTX for folinic acid cells were 2 nM and 10 nM. If the cells were grown in higher concentrations of folinic acid (10^−7 M), both cell lines were correspondingly more resistant to MTX. In contrast, fluoropyrimidine cytotoxicity was enhanced in both cell lines with increasing concentrations of folinic acid from 10^−7 M to 10^−6 M. At concentrations of folinic acid that are not optimal for cell growth, both CEM cell lines are hypersensitive to fluoropyrimidines. In addition, CEM/MTX cells are more hypersensitive to fluoropyrimidines than CEM/S cells at (10^−8 M) folinic acid or lower concentrations.
as §2

[14] = system: A2780S; assay: Dual labeled (14C/3H) DNA synthesis and degradation in response to cisplatin; conditions: for 3H-AZT/DNA A2780S: cisplatin 20 μM
Description: (§3) A dual labeled (^14C/^3H) experiment was designed to measure simultaneously DNA synthesis and degradation in response to cisplatin. […] A2780S cells respond to cisplatin with a modest degradation (10%) of (^14C) DNA over 3 hrs. In contrast, A2780DDP degradation 40.5% of the (^14C) DNA in 3 hrs. […] Transplatin at equimolar concentrations (20 μM) had no influence on DNA synthesis or degradation in A2780 cells.

[15] = system: A2780DDP; assay: Dual labeled (14C/3H) DNA synthesis and degradation in response to cisplatin; incorporation of labelled nucleoside analogs; conditions: for Incorporation of labelled nucleoside analog into macromolecules: A2780DDP; for 3H-AZT/DNA A2780DDP: cisplatin 20 μM
From the text: A dual labeled (^14C/^3H) experiment was designed to measure simultaneously DNA synthesis and degradation in response to cisplatin.

[16] = system: A2780 cells; assay: Dual labeled (14C/3H) DNA synthesis and degradation; conditions: 20 μM
Description: as §3

## Cc1cn([C@H]2C[C@H](N=[N+]=[N-])[C@@H](CO)O2)c(=O)[nH]c1=O [AZT, 3′ azido-2′, 3′ dideoxythymidine]
[1]; A2780S, (C) continuous exposure, read-out: EC50
  EC50: 10 µM
[1]; continuous exposure, proliferation during 6 days, mean + SD, read-out: EC50 A2780S
  EC50: 10 µM
[2]; A2780 DDP, (C) continuous exposure, read-out: EC50
  EC50: 510 µM
[2]; continuous exposure, proliferation during 6 days, mean + SD, read-out: EC50 A2780DDP
  EC50: 510 µM
[3]
  EC50: 11 µM
[4]
  EC50: 5.5 µM
[5]
  EC50: 65 µM
[6]
  EC50: 10 µM
[7]
  EC50: 70 µM
[8]
  EC50: 125 µM
[9]
  EC50: 150 µM
[10]
  EC50: 200 µM
[11]; CEM/S cells, continuous exposure up to 160 μM
  cytotoxicity: minimal cytotoxicity
[11]; CEMS, continuous exposure
  EC50: N.E.**
[12]
  EC50: N.E.**
[13]; CEM/MTX cells, continuous exposure (1-160 μM)
  EC50: 25 µM
[14]; A2780S, in response to cisplatin 20 μM
  increased incorporation of (3H) AZT into TCA material: 18.8%
[14]; treatment time 0 min
  3H-AZT/DNA A2780S: 7.79
[14]; treatment time 45 min
  3H-AZT/DNA A2780S: 6.27
[14]; treatment time 90 min
  3H-AZT/DNA A2780S: 7.23
[14]; treatment time 180 min
  3H-AZT/DNA A2780S: 9.25
[15]; 0 min after cisplatin (20 μM) treatment
  Incorporation of labelled nucleoside analog into macromolecules: 26.96
[15]; 45 min after cisplatin (20 μM) treatment
  Incorporation of labelled nucleoside analog into macromolecules: 31.62
[15]; 90 min after cisplatin (20 μM) treatment
  Incorporation of labelled nucleoside analog into macromolecules: 32.31
[15]; 180 min after cisplatin (20 μM) treatment
  Incorporation of labelled nucleoside analog into macromolecules: 37.96
[15]; treatment time 0 min
  3H-AZT/DNA A2780DDP: 26.96
[15]; treatment time 45 min
  3H-AZT/DNA A2780DDP: 31.62
[15]; treatment time 90 min
  3H-AZT/DNA A2780DDP: 32.31
[15]; treatment time 180 min
  3H-AZT/DNA A2780DDP: 37.96

## N.N.[Cl][Pt+2][Cl] [Transplatin]
[16]
  influence on DNA synthesis or degradation: no influence

## CN(Cc1cnc2nc(N)nc(N)c2n1)c1ccc(C(=O)N[C@@H](CCC(=O)O)C(=O)O)cc1 [methotrexate]
[13]; CEM cells made resistant by weekly (2 hr) pulses
  fold resistance of CEM/MTX cells: 15.8 fold
